Key:
[1] = system: HCV genotype 1a (H77 strain) replicon in HUH-7 cells; experiment: HCV replicon luciferase reporter assay, genotype 1a; type: cell-based; settings: Hepatitis C virus, Huh-7, 72 h, HCV genotype 1a replicon luciferase, 3 days incubation, read-out: LE_1a (EC50, range)
Outline: (§1)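 Replicon inhibition for both genotypes was measured as Renilla luciferase signal (EnduRen, 7.5 μM final, 2 h) after 3-day, 37° C exposure of replicon-bearing HUH-7 cells in 4% FCS DMEM, 0.5% DMSO. The 1b construct carries S1179I; the 1a H77 construct carries P1496L and S2204I. Twenty-point, 3-fold dilutions were fitted four-parametrically for EC50, and CC50 was taken from multiplexed Cell Titer-Blue.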

[2] = system: HCV genotype 1b (Con1) replicon in HUH-7 cells; experiment: HCV replicon luciferase reporter assay, genotype 1b; type: cell-based; settings: Hepatitis C virus, Huh-7, 72 h, HCV genotype 1b replicon luciferase, 3 days incubation, read-out: LE_1b (EC50, range)
Outline: as §1

Work on `CCOc1cc2ccnc(O[C@@H]3C[C@H]4C(=O)N[C@]5(C(=O)NS(=O)(=O)C6(CF)CC6)C[C@H]5/C=C\CC[C@@H](C)C[C@@H](C)[C@H](NC(=O)OC(C)(C)C)C(=O)N4C3)c2cc1F` [Compound 5411, tert-butyl ((2R,6S,7R,9R,13aS,14aR,16aS,Z)-2-((6-ethoxy-7-fluoroisoquinolin-1-yl)oxy)-14a-(((1-(fluoromethyl)cyclopropyl)sulfonyl)carbamoyl)-7,9-dimethyl-5,16-dioxo-1,2,3,5,6,7,8,9,10,11,13a,14,14a,15,16,16a-hexadecahydrocyclopropa[e]pyrrolo[1,2-a][1,4]diazacyclopentadecin-6-yl)carbamate] yielded an EC50 [1] of 1.01 to 5 nM and an EC50 [2] of 0.51 to 1 nM.

`CCOc1cc2ccnc(O[C@@H]3C[C@H]4C(=O)N[C@]5(C(=O)NS(=O)(=O)C6(CF)CC6)C[C@H]5/C=C\CC[C@@H](C)C[C@@H](C)[C@H](NC(=O)OC(C)(C)C(F)(F)F)C(=O)N4C3)c2cc1F` [Compound 5413, 1,1,1-trifluoro-2-methylpropan-2-yl((2R,6S,7R,9R,13aS,14aR,16aS,Z)-2-((6-ethoxy-7-fluoroisoquinolin-1-yl)oxy)-14a-(((1-(fluoromethyl)cyclopropyl)sulfonyl)carbamoyl)-7,9-dimethyl-5,16-dioxo-1,2,3,5,6,7,8,9,10,11,13a,14,14a,15,16,16a-hexadecahydrocyclopropa[e]pyrrolo[1,2-a][1,4]diazacyclopentadecin-6-yl)carbamate] gave an EC50 [1] of 1.01 to 5 nM and an EC50 [2] of 0.51 to 1 nM.

For `CCOc1cc2ccnc(O[C@@H]3C[C@H]4C(=O)N[C@]5(C(=O)NS(=O)(=O)C6(CF)CC6)C[C@H]5/C=C\CC[C@@H](C)C[C@@H](C)[C@H](NC(=O)OC(C)(C)C(C)(F)F)C(=O)N4C3)c2cc1F` [Compound 5415, 3,3-difluoro-2-methylbutan-2-yl((2R,6S,7R,9R,13aS,14aR,16aS,Z)-2-((6-ethoxy-7-fluoroisoquinolin-1-yl)oxy)-14a-(((1-(fluoromethyl)cyclopropyl)sulfonyl)carbamoyl)-7,9-dimethyl-5,16-dioxo-1,2,3,5,6,7,8,9,10,11,13a,14,14a,15,16,16a-hexadecahydrocyclopropa[e]pyrrolo[1,2-a][1,4]diazacyclopentadecin-6-yl)carbamate], the EC50 [1] was 1.01 to 5 nM and the EC50 [2] was 0.51 to 1 nM.

`CC[C@@H]1C[C@H](C)CC/C=C\[C@@H]2C[C@@]2(C(=O)NS(=O)(=O)C2(C)CC2)NC(=O)[C@@H]2C[C@@H](Oc3ncc(N4CCOCC4)c4ccccc34)CN2C(=O)[C@H]1NC(=O)OC(C)(C)C` [Compound 5417] was tested, and the EC50 [1] was 1.01 to 5 nM and the EC50 [2] was 1.01 to 5 nM.

With `CC[C@@H]1C[C@H](C)CC/C=C\[C@@H]2C[C@@]2(C(=O)NS(=O)(=O)C2(C)CC2)NC(=O)[C@@H]2C[C@@H](Oc3ncc(N4CCOCC4)c4ccccc34)CN2C(=O)[C@H]1NC(=O)OC(C)(C)C(F)(F)F` [Compound 5419, 1,1,1-trifluoro-2-methylpropan-2-yl((2R,6S,7R,9R,13aS,14aR,16aS,Z)-7-ethyl-9-methyl-14a-(((1-methylcyclopropyl)sulfonyl)carbamoyl)-2-((4-morpholinoisoquinolin-1-yl)oxy)-5,16-dioxo-1,2,3,5,6,7,8,9,10,11,13a,14,14a,15,16,16a-hexadecahydrocyclopropa[e]pyrrolo[1,2-a][1,4]diazacyclopentadecin-6-yl)carbamate] the EC50 [1] was 1.01 to 5 nM and the EC50 [2] was 0.51 to 1 nM.

For `C[C@@H]1CC/C=C\[C@@H]2C[C@@]2(C(=O)NS(=O)(=O)C2(C)CC2)NC(=O)[C@@H]2C[C@@H](Oc3ncc(N4CCOCC4)c4ccccc34)CN2C(=O)[C@@H](NC(=O)OC(C)(C)C)[C@H](C)C1` [Compound 5421, tert-butyl ((2R,6S,7R,9R,13aS,14aR,16aS,Z)-7,9-dimethyl-14a-(((1-methylcyclopropyl)sulfonyl)carbamoyl)-2-((4-morpholinoisoquinolin-1-yl)oxy)-5,16-dioxo-1,2,3,5,6,7,8,9,10,11,13a,14,14a,15,16,16a-hexadecahydrocyclopropa[e]pyrrolo[1,2-a][1,4]diazacyclopentadecin-6-yl)carbamate], the EC50 [1] was 1.01 to 5 nM and the EC50 [2] was 0.51 to 1 nM.

Compound `C[C@@H]1CC/C=C\[C@@H]2C[C@@]2(C(=O)NS(=O)(=O)C2(C)CC2)NC(=O)[C@@H]2C[C@@H](Oc3ncc(N4CCOCC4)c4ccccc34)CN2C(=O)[C@@H](NC(=O)OC(C)(C)C(F)(F)F)[C@H](C)C1` [Compound 5423, 1,1,1-trifluoro-2-methylpropan-2-yl((2R,6S,7R,9R,13aS,14aR,16aS,Z)-7,9-dimethyl-14a-(((1-methylcyclopropyl)sulfonyl)carbamoyl)-2-((4-morpholinoisoquinolin-1-yl)oxy)-5,16-dioxo-1,2,3,5,6,7,8,9,10,11,13a,14,14a,15,16,16a-hexadecahydrocyclopropa[e]pyrrolo[1,2-a][1,4]diazacyclopentadecin-6-yl)carbamate] has an EC50 [1] of 1.01 to 5 nM and an EC50 [2] of 0.51 to 1 nM.

`CC[C@@H]1C[C@H](C)CC/C=C\[C@@H]2C[C@@]2(C(=O)NS(=O)(=O)C2(CF)CC2)NC(=O)[C@@H]2C[C@@H](Oc3nccc4c5c(ccc34)OCCO5)CN2C(=O)[C@H]1NC(=O)OC(C)(C)C` [Compound 5425, tert-butyl ((2R,6S,7R,9R,13aS,14aR,16aS,Z)-2-((2,3-dihydro-[1,4]dioxino[2,3-f]isoquinolin-7-yl)oxy)-7-ethyl-14a-(((1-(fluoromethyl)cyclopropyl)sulfonyl)carbamoyl)-9-methyl-5,16-dioxo-1,2,3,5,6,7,8,9,10,11,13a,14,14a,15,16,16a-hexadecahydrocyclopropa[e]pyrrolo[1,2-a][1,4]diazacyclopentadecin-6-yl)carbamate] gave an EC50 [1] of 1.01 to 5 nM and an EC50 [2] of 1.01 to 5 nM.

In the case of `CC[C@@H]1C[C@H](C)CC/C=C\[C@@H]2C[C@@]2(C(=O)NS(=O)(=O)C2(CF)CC2)NC(=O)[C@@H]2C[C@@H](Oc3nccc4c5c(ccc34)OCCO5)CN2C(=O)[C@H]1NC(=O)OC(C)(C)C(F)(F)F` [Compound 5427, 1,1,1-trifluoro-2-methylpropan-2-yl((2R,6S,7R,9R,13aS,14aR,16aS,Z)-2-((2,3-dihydro-[1,4]dioxino[2,3-f]isoquinolin-7-yl)oxy)-7-ethyl-14a-(((1-(fluoromethyl)cyclopropyl)sulfonyl)carbamoyl)-9-methyl-5,16-dioxo-1,2,3,5,6,7,8,9,10,11,13a,14,14a,15,16,16a-hexadecahydrocyclopropa[e]pyrrolo[1,2-a][1,4]diazacyclopentadecin-6-yl)carbamate], the EC50 [1] is reported as 5.01 to 35 nM and the EC50 [2] is reported as 5.01 to 35 nM.

Work on `[2H]C([2H])([2H])C(OC(=O)N[C@@H]1C(=O)N2C[C@H](Oc3nccc4cc(OC)c(F)cc34)C[C@H]2C(=O)N[C@]2(C(=O)NS(=O)(=O)C3(C)CC3)C[C@H]2/C=C\CC[C@@H](C)C[C@H]1CC)(C([2H])([2H])[2H])C(F)(F)F` [Compound 5429] yielded an EC50 [1] of 1.01 to 5 nM and an EC50 [2] of 1.01 to 5 nM.

For `[2H]C([2H])([2H])C(OC(=O)N[C@@H]1C(=O)N2C[C@H](Oc3ncc(OC)c4ccccc34)C[C@H]2C(=O)N[C@]2(C(=O)NS(=O)(=O)C3(C)CC3)C[C@H]2/C=C\CC[C@@H](C)C[C@H]1CC)(C([2H])([2H])[2H])C(F)(F)F` [Compound 5431], the EC50 [1] was 1.01 to 5 nM and the EC50 [2] was 1.01 to 5 nM.

`[2H]C([2H])([2H])C(OC(=O)N[C@@H]1C(=O)N2C[C@H](Oc3ncc(OC)c4ccccc34)C[C@H]2C(=O)N[C@]2(C(=O)NS(=O)(=O)C3CC3)C[C@H]2/C=C\CC[C@@H](C)C[C@H]1CC)(C([2H])([2H])[2H])C(F)(F)F` [Compound 5433] gave an EC50 [1] of 0.51 to 1 nM and an EC50 [2] of 0.1 to 0.5 nM.

Compound `CC[C@@H]1C[C@@H](C)CC/C=C\[C@@H]2C[C@@]2(C(=O)NS(=O)(=O)C2(C)CC2)NC(=O)[C@@H]2C[C@@H](Oc3nccc4cc(OC)c(F)cc34)CN2C(=O)[C@H]1NC(=O)OC(C)(C)C(C)(F)F` [Compound 5434, 3,3-difluoro-2-methylbutan-2-yl((2R,6S,7R,9S,13aS,14aR,16aS,Z)-7-ethyl-2-((7-fluoro-6-methoxyisoquinolin-1-yl)oxy)-9-methyl-14a-(((1-methylcyclopropyl)sulfonyl)carbamoyl)-5,16-dioxo-1,2,3,5,6,7,8,9,10,11,13a,14,14a,15,16,16a-hexadecahydrocyclopropa[e]pyrrolo[1,2-a][1,4]diazacyclopentadecin-6-yl)carbamate] has an EC50 [1] of 1.01 to 5 nM and an EC50 [2] of 1.01 to 5 nM.

For `CC[C@@H]1C[C@H](C)CC/C=C\[C@@H]2C[C@@]2(C(=O)NS(=O)(=O)C2(C)CC2)NC(=O)[C@@H]2C[C@@H](Oc3nccc4cc(OC)c(F)cc34)CN2C(=O)[C@H]1NC(=O)OC(C)(C)C(C)(F)F` [Compound 5435, 3,3-difluoro-2-methylbutan-2-yl((2R,6S,7R,9R,13aS,14aR,16aS,Z)-7-ethyl-2-((7-fluoro-6-methoxyisoquinolin-1-yl)oxy)-9-methyl-14a-(((1-methylcyclopropyl)sulfonyl)carbamoyl)-5,16-dioxo-1,2,3,5,6,7,8,9,10,11,13a,14,14a,15,16,16a-hexadecahydrocyclopropa[e]pyrrolo[1,2-a][1,4]diazacyclopentadecin-6-yl)carbamate], the EC50 [1] was 1.01 to 5 nM and the EC50 [2] was 1.01 to 5 nM.

With `CC[C@@H]1C[C@H](C)CC/C=C\[C@@H]2C[C@@]2(C(=O)NS(=O)(=O)C2(C)CC2)NC(=O)[C@@H]2C[C@@H](Oc3ncc(OC)c4ccccc34)CN2C(=O)[C@H]1NC(=O)OC(C)(C)C(C)(F)F` [Compound 5437, 3,3-difluoro-2-methylbutan-2-yl((2R,6S,7R,9R,13aS,14aR,16aS,Z)-7-ethyl-2-((4-methoxyisoquinolin-1-yl)oxy)-9-methyl-14a-(((1-methylcyclopropyl)sulfonyl)carbamoyl)-5,16-dioxo-1,2,3,5,6,7,8,9,10,11,13a,14,14a,15,16,16a-hexadecahydrocyclopropa[e]pyrrolo[1,2-a][1,4]diazacyclopentadecin-6-yl)carbamate] the EC50 [1] was 1.01 to 5 nM and the EC50 [2] was 0.1 to 0.5 nM.

From patent US9499550B2 (BRISTOL-MYERS SQUIBB COMPANY, priority 2012, dated 2016)
